Experimental data reported in US8877946B2, “Benzylidene-indolinone compounds and their medical use” (National University of Singapore, priority 2011, dated 2014).
Read-outs that look alike come from different tables or passages of the source.

What was measured:
HuH7 cells = test: MTT antiproliferative (growth inhibition) assay on HuH7 cells; assay type: cell-based, human; settings: for IC50: Homo sapiens, Huh-7, MTT
Text: (§1) MTT was purchased from DUCHEFA Biochemie ([…]). Sunitinib, and sodium dodecyl sulfate, bovine serum albuminwere obtained from Sigma Aldrich (Singapore). Sorafenib was purchase from Ontario Chem. Fetal bovine serum (FBS) was obtained from Invitrogen. Human hepatocellular carcinoma cells (HuH-7 and Hep G2), and human diploid fibroblast strain (IMR 90). HuH7 was obtained as gifts from Dr Ho Han Kiat, Department of Pharmacy, NUS. IMR90 and Hep G2 were purchased from American Type Culture Collection (ATCC). HuH-7 cells were cultured in DMEM (Dulbecco's Modified Eagle Medium, high glucose) with 10% v/v fetal bovine serum (FBS), 100 mg/L penicillin G and 100 mg/L streptomycin. IMR 90 cell were cultured in EMEM (Eagle's Minimum Essential Medium), with 10% v/v FBS and 100 mg/L penicillin G and 100 mg/L streptomycin. The cells were sub-cultured when HuH7 or Hep G2 reached a density of 70-80×10^5 cell/T75 flask, and IMR 90 reached 20×10^5 cell/T75 flask. Cells were used within 2-10 passages for viability experiments.
(§2) The anti-proliferative activity of the test compounds were determined by the MTT assay. An aliquot (200 μL, 3×10^4 cells/mL for HuH7, 3.75×10^4 cells/mL for Hep G2, and 2×10^4 cells/mL for IMR 90) of medium was added to each well of the microtitre plate. […] The existing medium was removed from each well and replaced by fresh medium (200 μL) containing a known concentration of test compound. The final concentration of DMSO in each well was maintained at 0.5% v/v. (1% v/v was also utilized if the compounds were not soluble) The test compounds were incubated with the cells for another 72 h at 37 deg C., 5% CO2. The medium was then removed from the well and replaced with FBS free medium (200 μL) and MTT (50 μL of 2 mg/mL solution in phosphate buffer saline, pH 7.4). The phosphate buffer saline comprises 10 mM of potassium phosphate and 137 mM sodium chloride. After incubation (3 h) at 37 deg C., 5% CO2, the supernatant was removed and a solution of 200 μL DMSO and 25 μL Sorenson buffer (0.1 M glycine, 0.1 M sodium chloride, adjusted to pH 10.5 with 0.1 M sodium hydroxide) was added to dissolve the formazan crystals in each well. Vehicle control were cells grown in 1% v/v DMSO/Medium for 72 h, 37 deg C., 5% CO2 while blank controls were wells that contained only 200 μL DMSO and 25 μL Sorenson buffer. Absorbances were measured at 570 nm on a microplate reader (Tecan, Infinite 200). The viability of cells at a given concentration of test compound was determined from the expression:
(§3) [formula] where abs_compound=absorbance of wells containing cells and test compound, abs_vehicle (Not the same as above. Change to abs_vehicle)=absorbance of vehicle control and abs_blank=absorbance of blank control.
(§4) Each concentration of test compound was evaluated at least 3 times on separate occasions, and two different stock solution were used. The IC50 value (concentration that inhibited 50% of cell growth) was determined from the sigmoidal curve obtained by plotting percentage viability versus logarithmic concentration of test compound using GraphPad Prism 5 (San Diego, USA).

Hep G2 = test: MTT antiproliferative assay on Hep G2 cells; assay type: cell-based; settings: Homo sapiens, HepG2, 72 h
Text: as §1, §2, §3, §4

IMR 90 = test: MTT antiproliferative assay on non-malignant IMR 90 fibroblasts; assay type: cell-based; settings: non-malignant human lung fibroblast IMR 90, MTT, 72 h
Text: as §1, §2, §3, §4

[1] = 72 h (Table 9), read-out: IC50 (μM) HuH7
[2] = 72 h incubation, mean and SD of 3 or more independent determinations (Tables 1-8), read-out: IC 50

IC50 (HuH7 cells; [2])	Compound	other results
0.39 ± 0.07 µM	CCNS(=O)(=O)c1cccc(/C=C2/C(=O)Nc3cc(F)ccc32)c1 [Compound 3-11, (E)-3-(6-Fluoro-2-oxo-1,2-dihydro-indol-3-ylidenemethyl)-N-ethyl-benzenesulfonamide]	IC50 (HuH7 cells; [1]): 0.39 ± 0.07 µM; IC50 (Hep G2): 1.61 ± 0.16 µM
15.3 ± 0.6 µM	CNS(=O)(=O)c1ccc(/C=C2/C(=O)Nc3cc(Cl)ccc32)cc1 [Compound 1-21, (E)-4-(6-Chloro-2-oxo-1,2-dihydro-indol-3-ylidenemethyl)-N-methyl-benzenesulfonamide]	IC50 (HuH7 cells; [1]): 15.3 ± 0.6 µM; IC50 (Hep G2): > 30 µM
2.29 ± 0.06 µM	CC(C)NS(=O)(=O)c1cccc(/C=C2/C(=O)Nc3cc(F)ccc32)c1 [Compound 3-13, (E)-3-(6-Fluoro-2-oxo-1,2-dihydro-indol-3-ylidenemethyl)-N-isopropyl-benzenesulfonamide]	IC50 (HuH7 cells; [1]): 2.29 ± 0.06 µM; IC50 (Hep G2): 4.22 ± 0.48 µM
1.93 ± 0.34 µM	CC(C)NS(=O)(=O)c1cccc(C=C2C(=O)Nc3cc(Cl)ccc32)c1 [Compound 1-24, E/Z 3-(6-Chloro-2-oxo-1,2-dihydro-indol-3-ylidenemethyl)-N-isopropyl-benzenesulfonamide]	IC50 (HuH7 cells; [1]): 1.93 ± 0.34 µM; IC50 (Hep G2): 5.46 ± 0.95 µM
0.84 ± 0.09 µM	CCNS(=O)(=O)c1cccc(/C=C2/C(=O)Nc3cc(Cl)ccc32)c1 [Compound 1-22, (E)-3-(6-Chloro-2-oxo-1,2-dihydro-indol-3-ylidenemethyl)-N-ethyl-benzenesulfonamide]	IC50 (HuH7 cells; [1]): 0.84 ± 0.09 µM; IC50 (Hep G2): 3.96 ± 0.55 µM
0.12 ± 0.01 µM	CCCNS(=O)(=O)c1cccc(C=C2C(=O)Nc3cc(F)ccc32)c1 [Compound 3-12, E/Z-3-(6-Fluoro-2-oxo-1,2-dihydro-indol-3-ylidenemethyl)-N-propyl-benzenesulfonamide]	IC50 (HuH7 cells; [1]): 0.12 ± 0.01 µM; potency relative to 1-10 on HuH7 (HuH7 cells; compared with 1-10 (original lead)): 4 ×; IC50 (Hep G2): 0.72 ± 0.12 µM
–	CCN(CC)CCNC(=O)c1c(C)[nH]c(/C=C2\C(=O)Nc3ccc(F)cc32)c1C [sunitinib, reference compound]	IC50 (HuH7 cells; [1]): 5.6 ± 0.12 µM; IC50 (Hep G2): 5.07 ± 0.07 µM; IC50 (IMR 90): 6.32 ± 1.24 µM
0.36 ± 0.04 µM	CCCNS(=O)(=O)c1cccc(C=C2C(=O)Nc3cc(Cl)ccc32)c1 [Compound 1-23, E/Z-3-(6-Chloro-2-oxo-1,2-dihydro-indol-3-ylidenemethyl)-N-propyl-benzenesulfonamide]	IC50 (HuH7 cells; [1]): 0.36 ± 0.04 µM; IC50 (Hep G2): 1.51 ± 0.11 µM
0.91 ± 0.15 µM	O=C1Nc2cc(F)ccc2/C1=C\c1ccccc1F [Compound 3-2, (E)-6-Fluoro-3-(2-fluoro-benzylidene)-1,3-dihydro-indol-2-one]	IC50 (HuH7 cells; [1]): 0.91 ± 0.15 µM; IC50 (Hep G2): 1.82 ± 0.63 µM; IC50 (IMR 90): 2.06 ± 0.33 µM
7.48 ± 0.2 µM	O=C1Nc2cc(F)ccc2/C1=C\c1cccc(OC(F)(F)F)c1 [Compound 3-8, (E)-6-Fluoro-3-(3-trifluoromethoxyl-benzylidene)-1,3-dihydro-indol-2-one]	–
8.42 ± 0.27 µM	O=C1Nc2cc(F)ccc2/C1=C\c1ccc(C(F)(F)F)cc1 [Compound 3-7, (E)-6-Fluoro-3-(4-trifluoromethyl-benzylidene)-1,3-dihydro-indol-2-one]	–
15.3 ± 0.18 µM	O=C1Nc2ccc(F)cc2/C1=C\c1ccc(F)c(F)c1 [Compound 4-12, (E)-3-(3,4-Difluoro-benzylidene)-5-fluoro-1,3-dihydro-indol-2-one]	–
21.3 ± 2.22 µM	O=C1Nc2ccc(Cl)cc2/C1=C\c1ccccc1 [Compound 2-1, (E)-3-Benzylidene-5-chloro-1,3-dihydro-indol-2-one]	–
11.7 ± 1.1 µM	Cc1ccccc1/C=C1/C(=O)Nc2ccc(F)cc21 [Compound 4-5, (E)-5-Fluoro-3-(2-methyl-benzylidene)-1,3-dihydro-indol-2-one]	–
> 30 µM	O=C1Nc2ccc(F)cc2/C1=C\c1ccccc1C(F)(F)F [Compound 4-9, (E)-5-Fluoro-3-(2-trifluoromethyl-benzylidene)-1,3-dihydro-indol-2-one]	–
5.19 ± 0.63 µM	CS(=O)(=O)c1cccc(/C=C2/C(=O)Nc3ccc(F)cc32)c1 [Compound 4-14, (E)-5-Fluoro-3-(3-methanesulfonyl-benzylidene)-1,3-dihydro-indol-2-one]	–
7.04 ± 0.8 µM	COc1ccc2c(c1)NC(=O)/C2=C/c1ccccc1C(F)(F)F [Compound 5-5, (E) 6-Methoxy-3-(2-trifluoromethyl-benzylidene)-1,3-dihydro-indol-2-one]	–

IC50 (HuH7 cells; [2])	Compound	other results
24.1 ± 5.29 µM	O=C1Nc2cc(Cl)ccc2/C1=C\c1ccccc1C(F)(F)F [Compound 1-9, (E)-6-Chloro-3-(2-trifluoromethyl-benzylidene)-1,3-dihydro-indol-2-one]	–
> 30 µM	COc1ccccc1/C=C1/C(=O)Nc2cc(Cl)ccc21 [Compound 1-6, (E)-6-Chloro-3-(2-methoxy-benzylidene)-1,3-dihydro-indol-2-one]	–
7.36 ± 1.08 µM	N#Cc1cccc(/C=C2/C(=O)Nc3ccc(F)cc32)c1 [Compound 4-15, (E) 3-(5-Fluoro-2-oxo-1,2-dihydro-indol-3-ylidenemethyl)-benzonitrile]	–
1.2 ± 0.05 µM	COc1ccc2c(c1)NC(=O)/C2=C/c1cccc(C(F)(F)F)c1 [Compound 5-6, (E)-6-Methoxy-3-(3-trifluoromethyl-benzylidene)-1,3-dihydro-indol-2-one, reference compound]	–
1.41 ± 0.13 µM	O=C1Nc2cc(F)ccc2/C1=C\c1cccc(C(F)(F)F)c1 [Compound 3-6, (E)-6-Fluoro-3-(3-trifluoromethyl-benzylidene)-1,3-dihydro-indol-2-one, reference compound]	–
6.74 ± 1.23 µM	CN1C(=O)/C(=C/c2cccc(C(F)(F)F)c2)c2ccccc21 [Compound 8-3, (E)-1-Methyl-3-(3-trifluoromethyl-benzylidene)-1,3-dihydro-indol-2-one]	–
15.8 ± 3.37 µM	CNS(=O)(=O)c1cccc(/C=C2\C(=O)Nc3ccc(F)c(F)c32)c1 [Compound 6-10, (Z)-3-(4,5-Difluoro-2-oxo-1,2-dihydro-indol-3-ylidenemethyl)-N-methyl-benzenesulphonamide]	–
> 30 µM	COc1ccc(/C=C2/C(=O)Nc3cc(Cl)ccc32)cc1 [Compound 1-8, (E)-6-Chloro-3-(4-methoxy-benzylidene)-1,3-dihydro-indol-2-one]	–
> 30 µM	O=C1Nc2cc(F)c(F)cc2/C1=C\c1ccccc1 [Compound 7-1, (E)-3-Benzylidene-5,6-difluoro-1,3-dihydro-indol-2-one]	–
12.9 ± 0.95 µM	O=C1Nc2cc(Cl)ccc2/C1=C\c1ccc(F)cc1 [Compound 1-4, (E)-6-Chloro-3-(4-fluoro-benzylidene)-1,3-dihydro-indol-2-one]	–
2.94 ± 0.26 µM	O=C1Nc2ccc(F)c(F)c2/C1=C/c1cccc(OC(F)(F)F)c1 [Compound 6-8, (Z)-4,5-Difluoro-3-(3-trifluoromethoxyl-benzylidene)-1,3-dihydro-indol-2-one]	–
9.31 ± 1.04 µM	O=C1Nc2ccc(F)cc2/C1=C\c1ccc(C(F)(F)F)cc1 [Compound 4-11, (E)-5-Fluoro-3-(4-trifluoromethylbenzylidene)-1,3-dihydro-indol-2-one]	–
> 30 µM	Cc1cccc(/C=C2/C(=O)Nc3ccc(F)cc32)c1 [Compound 4-6, (E)-5-Fluoro-3-(3-methyl-benzylidene)-1,3-dihydro-indol-2-one]	–
> 30 µM	O=C1Nc2ccccc2C1=Nc1cccc(C(F)(F)F)c1 [Compound 8-2, (E/Z) 3-(3-Trifluoromethyl-phenylimino)-1,3-dihydro-indol-2-one]	–
10.6 ± 0.68 µM	O=C1Nc2cc(F)c(F)cc2/C1=C\c1ccc(C(F)(F)F)cc1 [Compound 7-7, (E)-5,6-Difluoro-3-(4-(trifluoromethyl)benzylidene)-1,3-dihydro-indol-2-one]	–
19.2 ± 3.25 µM	O=C1Nc2cc(F)c(F)cc2/C1=C\c1cccc(F)c1 [Compound 7-3, (E)-5,6-Difluoro-3-(3-fluorobenzylidene)-1,3-dihydro-indol-2-one]	–
